Laboratory results: patent publication US10189785B2, “Heterocyclic compound” (TAKEDA PHARMACEUTICAL COMPANY LIMITED, priority 2015, dated 2019)

Experiments:
[1] = molecular target: T1, SPT (SPT2-expressing membrane fraction: human SPT1, human SPT2 and human ssSPTa) (Homo sapiens, UniProt O15269+O15270); experiment: SPT enzyme inhibition test (Test Example 1); type: biochemical; settings: for inhibition at 1 µM: read-out: Rate of inhibition (%) at 1 μM
T1 construct: Full-length human SPT1, human SPT2 and human ssSPTa used; made in house; host or cells: FreeStyle 293 cells (pcDNA3.1 vectors, cotransfection); crude membrane fraction used
T1 sequence (O15269 1-473): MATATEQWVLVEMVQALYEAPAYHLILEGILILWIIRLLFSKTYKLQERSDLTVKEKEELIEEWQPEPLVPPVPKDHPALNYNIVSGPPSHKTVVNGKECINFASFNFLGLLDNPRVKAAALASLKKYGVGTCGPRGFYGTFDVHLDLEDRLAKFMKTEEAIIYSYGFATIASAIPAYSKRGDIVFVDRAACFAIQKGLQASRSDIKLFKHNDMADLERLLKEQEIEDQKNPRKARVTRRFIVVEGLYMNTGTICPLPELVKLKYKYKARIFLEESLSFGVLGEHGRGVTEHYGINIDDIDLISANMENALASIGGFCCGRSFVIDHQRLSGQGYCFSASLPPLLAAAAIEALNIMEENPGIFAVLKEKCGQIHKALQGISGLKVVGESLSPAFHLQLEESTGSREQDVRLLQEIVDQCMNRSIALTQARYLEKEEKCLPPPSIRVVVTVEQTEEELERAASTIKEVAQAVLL
T1 sequence (O15270 1-562): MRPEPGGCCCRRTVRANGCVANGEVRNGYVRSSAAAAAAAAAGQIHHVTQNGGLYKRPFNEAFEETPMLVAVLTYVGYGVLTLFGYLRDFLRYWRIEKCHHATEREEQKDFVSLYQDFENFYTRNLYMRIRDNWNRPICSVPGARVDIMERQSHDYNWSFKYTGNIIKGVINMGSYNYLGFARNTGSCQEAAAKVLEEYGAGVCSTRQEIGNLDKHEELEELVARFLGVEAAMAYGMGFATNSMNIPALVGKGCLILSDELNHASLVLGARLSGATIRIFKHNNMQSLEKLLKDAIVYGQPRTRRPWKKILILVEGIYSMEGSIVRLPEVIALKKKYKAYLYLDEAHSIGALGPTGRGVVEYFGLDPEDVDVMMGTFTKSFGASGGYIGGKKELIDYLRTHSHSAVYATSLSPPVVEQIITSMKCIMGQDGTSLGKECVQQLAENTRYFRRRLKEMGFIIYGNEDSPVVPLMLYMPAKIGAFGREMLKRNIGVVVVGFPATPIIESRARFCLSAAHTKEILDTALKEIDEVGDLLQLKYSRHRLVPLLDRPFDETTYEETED
T1 sequence (Q969W0 1-71 partner): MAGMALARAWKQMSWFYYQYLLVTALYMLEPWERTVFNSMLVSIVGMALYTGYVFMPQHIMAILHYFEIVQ
Procedure, shortened: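 Membrane fraction (100 μg/mL stock) of cells expressing human SPT1, SPT2 and ssSPTa was preincubated 60 min at RT with compound in 100 mM Hepes pH 8.0 containing EDTA, DTT and 0.01% BSA. Reaction ran 15 min at RT with 2 mM L-serine and 20 μM palmitoyl CoA (solution concentrations), then formic acid quench. Product measured by RapidFire mass spectrometry against a C17-sphinganine internal standard, giving % inhibition.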

[2] = tested on: lung adenocarcinoma cell line HCC4006; experiment: HCC4006 cell growth inhibition test (Test Example 2); type: cell-based; settings: HCC4006 cells, culture for 5 days, CellTiter-Glo; for inhibition at 1 µM: read-out: Rate of inhibition (%) at 1 μM
Procedure, shortened: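 HCC4006 cells in RPMI-1640 with 10% FBS were seeded at 250 cells/well and dosed with compound the next day. After 5 days, viability was read by CellTiter-Glo luminescence. Percent inhibition was calculated against no-compound control and cell-free blank.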

[3] = Homo sapiens, 120 h, 1 μM test compound

| inhibition at 1 µM [1] | Rate of inhibition (%) at 1 μM ([1]; 1 μM test compound, SPT2-expressing membrane fraction) | Structure (SMILES) | inhibition at 1 µM [2, 3] | Rate of inhibition (%) at 1 μM ([2]; 1 μM test compound) | inhibition at 0.3 µM ([2]; Homo sapiens, 120 h, 0.3 μM test compound, read-out: Rate of inhibition at 0.3 μM) |
| --- | --- | --- | --- | --- | --- |
| 102% |  | Cn1nc(C(F)(F)F)cc1C(=O)N[C@@H]1CCN(C(=O)c2cc(Cl)c3nccnc3c2)C[C@@H]1c1ccc(F)cc1 [Example 96B, N-((3S,4R)-1-((8-chloroquinoxalin-6-yl)carbonyl)-3-(4-fluorophenyl)piperidin-4-yl)-1-methyl-3-(trifluoromethyl)-1H-pyrazole-5-carboxamide] | 49% |  |  |
| 102% |  | COc1cc(C(=O)N2CC[C@@H](NC(=O)c3cc(C(F)(F)F)nn3C)[C@@H](c3ccccc3)C2)cc2nccnc12 [Example 412B, N-((3S,4R)-1-((8-Methoxyquinoxalin-6-yl)carbonyl)-3-phenylpiperidin-4-yl)-1-methyl-3-(trifluoromethyl)-1H-pyrazole-5-carboxamide] | 47% |  |  |
| 102% |  | O=C(N[C@@H]1CCN(C(=O)c2cc(Cl)c3nccnc3c2)C[C@@H]1c1ccccc1)c1ncccc1OC(F)F [Example 31B, N-((3S,4R)-1-((8-Chloroquinoxalin-6-yl)carbonyl)-3-phenylpiperidin-4-yl)-3-(difluoromethoxy)pyridine-2-carboxamide] | 57% |  |  |
| 101% |  | O=C(N[C@@H]1CCN(C(=O)c2cc(Cl)c3nccnc3c2)C[C@@H]1c1ccccc1)c1ncccc1Cl [Example 246B, 3-Chloro-N-((3S,4R)-1-((8-chloroquinoxalin-6-yl)carbonyl)-3-phenylpiperidin-4-yl)pyridine-2-carboxamide] | 55% |  |  |
| 101% |  | Cc1cc(C(=O)N[C@@H]2CCN(C(=O)c3cc(Cl)c4nccnc4c3)C[C@@H]2c2ccccc2)n(C)n1 [Example 23B, N-((3S,4R)-1-((8-Chloroquinoxalin-6-yl)carbonyl)-3-phenylpiperidin-4-yl)-1,3-dimethyl-1H-pyrazole-5-carboxamide] | 53% |  |  |
| 101% |  | Cc1nn(C)c(Cl)c1C(=O)N[C@@H]1CCN(C(=O)c2cc(Cl)c3nccnc3c2)C[C@@H]1c1ccc(F)cc1 [Example 59B, 5-Chloro-N-((3S,4R)-1-((8-chloroquinoxalin-6-yl)carbonyl)-3-(4-fluorophenyl)piperidin-4-yl)-1,3-dimethyl-1H-pyrazole-4-carboxamide] |  |  | 53% |
| 101% |  | O=C(N[C@@H]1CCN(C(=O)c2cc(Cl)c3nccnc3c2)C[C@@H]1c1ccccc1)c1ncccc1C(F)(F)F [Example 241B, N-((3S,4R)-1-((8-Chloroquinoxalin-6-yl)carbonyl)-3-phenylpiperidin-4-yl)-3-(trifluoromethyl)pyridine-2-carboxamide] | 54% |  |  |
| 101% |  | Cc1nn(C)c(Cl)c1C(=O)N[C@@H]1CCN(C(=O)c2cc(Cl)c3nccnc3c2)C[C@@H]1c1ccccc1 [Example 166B, 5-Chloro-N-((3S,4R)-1-((8-chloroquinoxalin-6-yl)carbonyl)-3-phenylpiperidin-4-yl)-1,3-dimethyl-1H-pyrazole-4-carboxamide] | 53% |  |  |

The next lines start with the compound.

| Structure (SMILES) | inhibition at 1 µM [1] | Rate of inhibition (%) at 1 μM ([1]; 1 μM test compound, SPT2-expressing membrane fraction) | inhibition at 1 µM [2, 3] | Rate of inhibition (%) at 1 μM ([2]; 1 μM test compound) | inhibition at 0.3 µM ([2]; Homo sapiens, 120 h, 0.3 μM test compound, read-out: Rate of inhibition at 0.3 μM) |
| --- | --- | --- | --- | --- | --- |
| O=C(N[C@@H]1CCN(C(=O)c2cc(Cl)c3nccnc3c2)C[C@@H]1c1ccc(F)cc1)c1ncccc1C(F)(F)F [Example 245B, N-((3S,4R)-1-((8-Chloroquinoxalin-6-yl)carbonyl)-3-(4-fluorophenyl)piperidin-4-yl)-3-(trifluoromethyl)pyridine-2-carboxamide] | 100% |  | 53% |  |  |
| COc1ncc(C(=O)N2CCC(NC(=O)c3ccc(Cl)cc3C(F)(F)F)c3c2cnn3CC(F)F)cc1Cl (stereo not shown) [Example 126A, 4-Chloro-N-(4-((5-chloro-6-methoxypyridin-3-yl)carbonyl)-1-(2,2-difluoroethyl)-4,5,6,7-tetrahydro-1H-pyrazolo[4,3-b]pyridin-7-yl)-2-(trifluoromethyl)benzamide] | 101% |  | 45% |  |  |
| O=C(N[C@@H]1CCN(C(=O)c2cc(Cl)c3nccnc3c2)C[C@@H]1c1ccccc1)c1ccccc1OC(F)(F)F [Example 254B, N-((3S,4R)-1-((8-chloroquinoxalin-6-yl)carbonyl)-3-phenylpiperidin-4-yl)-2-(trifluoromethoxy)benzamide] | 99% |  | 55% |  |  |
| CCn1ncc2c1C(NC(=O)c1ccccc1OC(F)(F)F)CCN2C(=O)c1cnc(OC)c(OC)c1 (stereo not shown) [Example 155A, N-(4-((5,6-Dimethoxypyridin-3-yl)carbonyl)-1-ethyl-4,5,6,7-tetrahydro-1H-pyrazolo[4,3-b]pyridin-7-yl)-2-(trifluoromethoxy)benzamide] | 103% |  | 53% |  |  |
| COc1cc(C(=O)N2CC[C@@H](NC(=O)c3cccnc3C(F)(F)F)[C@@H](c3ccccc3)C2)cnc1OC [Example 140B, N-((3S,4R)-1-((5,6-dimethoxypyridin-3-yl)carbonyl)-3-phenylpiperidin-4-yl)-2-(trifluoromethyl)nicotinamide] | 101% |  | 49% |  |  |
| COc1ncc(C(=O)N2CCC(NC(=O)c3ccccc3C(F)(F)F)c3c2cnn3C)cc1Cl (stereo not shown) [Example 85A, N-(4-((5-chloro-6-methoxypyridin-3-yl)carbonyl)-1-methyl-4,5,6,7-tetrahydro-1H-pyrazolo[4,3-b]pyridin-7-yl)-2-(trifluoromethyl)benzamide] | 99% |  | 39% |  |  |
| Cc1cc(NC(=O)C2CC2)sc1C(=O)N1CC[C@@H](NC(=O)c2ccccc2OC(F)(F)F)[C@@H](c2ccccc2)C1 [Example 35B, N-((3S,4R)-1-((5-((cyclopropylcarbonyl)amino)-3-methyl-2-thienyl)carbonyl)-3-phenylpiperidin-4-yl)-2-(trifluoromethoxy)benzamide] | 101% |  | 40% |  |  |
| COc1ccc(C(=O)N2CC[C@H](NC(=O)c3ccccc3Cl)[C@H](c3ccc(F)cc3)C2)cc1OC (relative stereo) [Example 114B, 2-chloro-N-(cis-1-(3,4-dimethoxybenzoyl)-3-(4-fluorophenyl)piperidin-4-yl)benzamide] | 99% |  | 56% |  |  |
| CS(=O)(=O)c1ccc(C(=O)N2CC[C@@H](NC(=O)c3ccccc3OC(F)(F)F)[C@@H](c3ccccc3)C2)cc1Cl [Example 102B, N-((3S,4R)-1-(3-chloro-4-(methylsulfonyl)benzoyl)-3-phenylpiperidin-4-yl)-2-(trifluoromethoxy)benzamide] | 100% |  | 46% |  |  |
| CN(C)CCOc1ccc(C(=O)N[C@@H]2CCN(C(=O)c3cc(Cl)c4nccnc4c3)C[C@@H]2c2ccccc2)cn1 [Example 25B, N-((3S,4R)-1-((8-chloroquinoxalin-6-yl)carbonyl)-3-phenylpiperidin-4-yl)-6-(2-(dimethylamino)ethoxy) nicotinamide] |  | 100% |  | 53% |  |
| COc1ncc(C(=O)N2CCC(NC(=O)c3ccccc3Cl)c3c2cnn3C)cc1Cl (stereo not shown) [Example 84A, 2-chloro-N-(4-((5-chloro-6-methoxypyridin-3-yl)carbonyl)-1-methyl-4,5,6,7-tetrahydro-1H-pyrazolo[4,3-b]pyridin-7-yl)benzamide] | 98% |  | 32% |  |  |
| COc1cc(C(=O)N2CCC(NC(=O)c3ccccc3Cl)c3c2cnn3C)cnc1OC (stereo not shown) [Example 80A, 2-chloro-N-(4-((5,6-dimethoxypyridin-3-yl)carbonyl)-1-methyl-4,5,6,7-tetrahydro-1H-pyrazolo[4,3-b]pyridin-7-yl)benzamide] | 99% |  | 44% |  |  |
